Experimental data as given in paper PMC7914897, “Cytotoxic Potential of a-Azepano- and 3-Amino-3,4-SeCo-Triterpenoids” (International Journal of Molecular Sciences, 2021).
Where two headings read alike, the source gives them in different places.

Assays:
[1] = test system: A2780 (ovarian carcinoma); assay: SRB cytotoxicity assay, 72 h; assay type: cell-based, human; settings: Homo sapiens; A2780, 72 h, cut-off 30 µM; read-out: EC50
Method in brief: (§1)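 Seed, 24 h; compound 0–30 µM serial dilutions, 72 h (DMSO ≤0.5%); fix 10% TCA, 4 °C; stain 0.4% SRB ~20 min; 1% AcOH wash; solubilise 10 mM Tris; A570. EC50 vs untreated.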

[2] = test system: A375 (malignant melanoma); assay: SRB cytotoxicity assay, 72 h; assay type: cell-based, human; settings: Homo sapiens, A-375, 72 h, A375, 72 h, cut-off 30 µM; read-out: EC50
Method in brief: as §1

[3] = test system: FaDu (hypopharyngeal carcinoma); assay: SRB cytotoxicity assay, 72 h; assay type: cell-based, human; settings: Homo sapiens, cut-off 30 µM, read-out: EC50
Method in brief: as §1

[4] = test system: HT29 (colorectal carcinoma); assay: SRB cytotoxicity assay, 72 h; assay type: cell-based, human; settings: Homo sapiens, HT-29; HT29, 72 h, cut-off 30 µM; read-out: EC50
Method in brief: as §1

MCF-7 (breast carcinoma) = assay: SRB cytotoxicity assay, 72 h; assay type: cell-based, human; settings: Homo sapiens, MCF7; MCF-7, 72 h, cut-off 30 µM; read-out: EC50
Method in brief: as §1

[5] = test system: NIH 3T3 (non-malignant mouse fibroblasts); assay: SRB cytotoxicity assay, 72 h; assay type: cell-based; settings: Mus musculus, NIH3T3; NIH 3T3, 72 h, cut-off 30 µM; read-out: EC50
Method in brief: as §1

CNS cancer subpanel = assay: NCI-60 screen, subpanel; settings: Homo sapiens
Ovarian Cancer subpanel = assay: NCI-60 screen, subpanel; settings: Homo sapiens
[6] = test system: A549/ATCC (NSC lung cancer); assay: NCI-60 screen (SRB, 48 h); settings: Homo sapiens
[7] = test system: NCI-H23 (NSC lung cancer); assay: NCI-60 screen (SRB, 48 h); settings: Homo sapiens
[8] = test system: NCI-H322M (NSC lung cancer); assay: NCI-60 screen (SRB, 48 h); settings: Homo sapiens
SW-620 (Colon cancer) = assay: NCI-60 screen (SRB, 48 h); settings: Homo sapiens
SF-268 (CNS cancer) = assay: NCI-60 screen (SRB, 48 h); settings: Homo sapiens
SF-539 (CNS cancer) = assay: NCI-60 screen (SRB, 48 h); settings: Homo sapiens
M14 (Melanoma) = assay: NCI-60 screen (SRB, 48 h); settings: Homo sapiens
UACC-62 (Melanoma) = assay: NCI-60 screen (SRB, 48 h); settings: Homo sapiens
OVCAR-8 (Ovarian cancer) = assay: NCI-60 screen (SRB, 48 h); settings: Homo sapiens
ACHN (Renal cancer) = assay: NCI-60 screen (SRB, 48 h); settings: Homo sapiens
CAKI-1 (Renal cancer) = assay: NCI-60 screen (SRB, 48 h); settings: Homo sapiens
SN12C (Renal cancer) = assay: NCI-60 screen (SRB, 48 h); settings: Homo sapiens
TK-10 (Renal cancer) = assay: NCI-60 screen (SRB, 48 h); settings: Homo sapiens
PC-3 (Prostate cancer) = assay: NCI-60 screen (SRB, 48 h); settings: Homo sapiens
HS 578T (Breast cancer) = assay: NCI-60 screen (SRB, 48 h); settings: Homo sapiens
[9] = test system: panel of approximately 60 cancer cell lines; assay: NCI-60 screen (SRB, 48 h), full panel

## Cc1ccc(S(=O)(=O)OC[C@@]2(C)CC[C@]3(C)CC[C@]4(C)C(=C3C2)C=C[C@@H]2[C@@]3(C)CCCNC(C)(C)[C@@H]3CC[C@]24C)cc1 [Compound 16]
[1]
  EC50: 2.38 ± 0.1 µM
[2]
  EC50: 1.91 ± 0.1 µM
[3]
  EC50: 1.52 ± 0.1 µM
[4]
  EC50: 1.54 ± 0.1 µM
MCF-7 (breast carcinoma)
  EC50: 1.54 ± 0.1 µM
[5]
  EC50: 2.45 ± 0.1 µM
CNS cancer subpanel; 48 h, read-out: TGI MG_MID
  IC (TGI): 3.4 µM
CNS cancer subpanel; read-out: GI50 MG_MID
  GI50: 1.77 µM
CNS cancer subpanel; read-out: LC50 MG_MID
  CC50: 6.49 µM
Ovarian Cancer subpanel; 48 h, read-out: TGI MG_MID
  IC (TGI): 3.68 µM
Ovarian Cancer subpanel; read-out: GI50 MG_MID
  GI50: 1.86 µM
Ovarian Cancer subpanel; read-out: LC50 MG_MID
  CC50: 29.4 µM
[6]; A549
  GI50: 1.86 µM
[6]; A549, 48 h, read-out: TGI
  IC (TGI): 3.62 µM
[7]; NCI-H23
  GI50: 1.82 µM
[7]; NCI-H23, 48 h, read-out: TGI
  IC (TGI): 3.42 µM
[7]; NCI-H23, read-out: LC50
  CC50: 6.41 µM
[8]
  GI50: 1.62 µM
[8]; 48 h, read-out: TGI
  IC (TGI): 3.01 µM
[8]; read-out: LC50
  CC50: 5.62 µM
SW-620 (Colon cancer); SW-620
  GI50: 1.78 µM
SW-620 (Colon cancer); SW-620, 48 h, read-out: TGI
  IC (TGI): 3.54 µM
SW-620 (Colon cancer); SW-620, read-out: LC50
  CC50: 7.04 µM
SF-268 (CNS cancer); SF-268
  GI50: 1.95 µM
SF-268 (CNS cancer); SF-268, 48 h, read-out: TGI
  IC (TGI): 4.12 µM
SF-268 (CNS cancer); SF-268, read-out: LC50
  CC50: 8.68 µM
SF-539 (CNS cancer); SF-539
  GI50: 1.71 µM
SF-539 (CNS cancer); SF-539, 48 h, read-out: TGI
  IC (TGI): 3.11 µM
SF-539 (CNS cancer); SF-539, read-out: LC50
  CC50: 5.66 µM
M14 (Melanoma); M14
  GI50: 1.8 µM
M14 (Melanoma); M14, 48 h, read-out: TGI
  IC (TGI): 3.62 µM
UACC-62 (Melanoma); UACC-62
  GI50: 1.84 µM
UACC-62 (Melanoma); UACC-62, 48 h, read-out: TGI
  IC (TGI): 3.39 µM
OVCAR-8 (Ovarian cancer); OVCAR-8
  GI50: 2.12 µM
OVCAR-8 (Ovarian cancer); OVCAR-8, 48 h, read-out: TGI
  IC (TGI): 4.57 µM
ACHN (Renal cancer)
  GI50: 1.72 µM
ACHN (Renal cancer); 48 h, read-out: TGI
  IC (TGI): 3.1 µM
ACHN (Renal cancer); read-out: LC50
  CC50: 5.5 µM
CAKI-1 (Renal cancer); CAKI-1
  GI50: 1.61 µM
CAKI-1 (Renal cancer); CAKI-1, 48 h, read-out: TGI
  IC (TGI): 3.06 µM
CAKI-1 (Renal cancer); CAKI-1, read-out: LC50
  CC50: 5.81 µM
SN12C (Renal cancer)
  GI50: 1.79 µM
SN12C (Renal cancer); 48 h, read-out: TGI
  IC (TGI): 3.41 µM
TK-10 (Renal cancer); TK-10
  GI50: 1.88 µM
TK-10 (Renal cancer); TK-10, 48 h, read-out: TGI
  IC (TGI): 3.59 µM
TK-10 (Renal cancer); TK-10, read-out: LC50
  CC50: 6.85 µM
PC-3 (Prostate cancer); PC-3
  GI50: 1.53 µM
PC-3 (Prostate cancer); PC-3, 48 h, read-out: TGI
  IC (TGI): 2.98 µM
PC-3 (Prostate cancer); PC-3, read-out: LC50
  CC50: 5.82 µM
HS 578T (Breast cancer)
  GI50: 1.94 µM
HS 578T (Breast cancer); 48 h, read-out: TGI
  IC (TGI): 4.26 µM
HS 578T (Breast cancer); read-out: LC50
  CC50: 9.37 µM
[9]; 1 dose 10 µM
  Positive Cytostatic Effect (cell lines with percent growth 0 to 50 / total): 12/60
  Positive Cytotoxic Effect (cell lines with percent growth < 0 / total): 31/60
  number of cancer cell lines the compound was active against: 40 cell lines
[9]; Homo sapiens, 48 h, read-out: Mean Growth, %
  activity at 10 µM: -0.81%
[9]; Homo sapiens, 48 h, read-out: Range of Growth, %
  activity at 10 µM: -99.2 to 104%
[9]; Homo sapiens, 48 h, read-out: TGI MG_MID60, average over all cell lines
  IC (TGI): 3.52 µM
[9]; Homo sapiens, read-out: GI50 MG_MID60
  GI50: 1.72 µM
[9]; Homo sapiens, read-out: GI50 against all human tumor cell lines
  GI50: < 3 µM
[9]; Homo sapiens, read-out: GI50 against the most sensitive cell lines
  GI50: 0.2 to 0.94 µM
